“Also recorded” adds a separate entry of the source.

Assay type in all cases: cell-based, human
One assay concerns hES cells. Kind of assay: Low-density real-time cell index monitoring (RT-CES impedance reader). The note with it: for survival and expansion at low density, single factors and two-factor combinations: 50 μM (NE, ACh, Adenosine, GABA) or 10 μM (Y27632), 5 days; for time after plating at which cell index rises above background / expansion detectable: 50 μM each factor; for survival/proliferation compared to DMSO controls: StemPro hESC SFM HIA, low-density impedance assay. How it is done: FIG. 4. Titration of NE and ACh using the RT-CES impedance reader. 1000 hES cells/well were plated in StemPro® hESC SFM containing the indicated concentrations of small molecules (in μM). In such an assay, the timing of when the cell index rises is associated with the proportion of cells that survive and expand at low density.
FIG. 5. Combined effects of small molecules compound combinations in low cell density assays. (A) 1000 hES cells/well were plated in StemPro® hESC SFM containing small molecules at 50 μM (NE, ACh, Adenosine, GABA) or 10 μM (Y27632). The assay was carried out over 5 days using the RT-CES system.
FIG. 6. […] 1000 hES cells/well were plated in StemPro® hESC SFM containing Heregulin, IGF1 and Activin (HIA) and the indicated small molecules. […] Compounds were tested at 10 μM. The DMSO trace is an average of 8 wells. […] Compounds were tested at the indicated concentrations.
FIG. 7. […] 1000 hES cells/well were plated in StemPro® hESC SFM containing the indicated combinations of growth factors and small molecules. Heregulin (H), LR3-IGF1 (I), Activin (A).
FIG. 9. Low-density RT-CES assays of combinations of growth factors and neurotransmitters. 1000 hES cells/well were plated in StemPro® hESC SFM containing the indicated combinations of growth factors and small molecules. Heregulin (H), LR3-IGF1 (I), Activin (A). Small molecules were tested at 50 μM.
Furthermore, pluripotent cells can also be grown in 96-well culture devices that provide real-time measurements of impedance, which can be used to measure cell proliferation and viability using the RT-CES™ methods from ACEA Biosciences, Inc. (www (dot) aceabio (dot) com). Such an approach would enable a label-free identification and quantification of subtle or immediate effects on differentiable cells, as well as measurements of proliferation, apoptosis and changes to morphology, in real time.
To examine more closely the potency of individual neurotransmitters and determine if synergies exist between different factors, low-density assays were performed in real time using an impedance reader. The ACEA biosciences RT-CES system uses 96-well trays that contain embedded microsensors to monitor changes in electrical impedance, which is translated into a measure of cell index. Any overt alteration within a cell culture can be detected, including but not limited to cell proliferation, migration, cell spreading, apoptosis, differentiation and the like. […] Once an undifferentiated culture becomes confluent the cell index remains high, but tends to go down and up (scallop) between daily feedings. Conversely, differentiation is typically indicated by the appearance of distinctive patterns, such as peaks and troughs in the cell index, likely indicative of an epithelial-to-mesenchymal transition, flattening, cell migration, apoptosis or similar differentiation and growth related changes.
Human ES cells were plated at low density, 1000 cells/well, in RT-CES trays and cultured for 10 days (FIG. 4). Cells were plated directly in StemPro® hESC SFM containing carrier control (DMSO), NE, or ACh.

Assay [1] deals with hES cells (e.g., BGO2 cells). Kind of assay: Low-density colony forming / colony counting assay (AP+ colonies). The note with it: 10^4 cells/well, StemPro hESC SFM, 7 days; for support of colony formation at low density: compounds at 10 or 50 μM. How it is done:
FIG. 2. Low density plating assay of hES cells (e.g., BGO2 cells). 10000 cells/well were plated in 6-well trays in StemPro® hESC SFM (Life Technologies) medium and stained with alkaline phosphatase (AP+) after 7 days. Y (Y27632), ACh (acetylcholine), NMDA (N-methyl-D-aspartic acid), NE ((−)-Norepinephrine), NE.Bit ((±)-Norepinephrine (+)-bitartrate). Compounds were added at 10 or 50 μM as indicated.
FIG. 3. Low density plating assay of hES cells. (A) 200-10000 cells/well were plated in […] trays in StemPro® hESC SFM medium, or StemPro® hESC SFM +50 μM NE, or +50 μM ACh, and stained with alkaline phosphatase (AP+) after 8 days. […] ACh (acetylcholine), NE ((±)-Norepinephrine (+)-bitartrate). […]
About 10^4 hES cells/well were plated in 6-well trays in StemPro® hESC SFM, in the presence of different compounds and cultured for about 7 days. The cultures were then fixed, stained for alkaline phosphatase activity and colonies were counted (FIG. 2). […] The (±)-Norepinephrine (+)-bitartrate salt was used for all subsequent experiments involving norepinephrine (NE) unless specifically described otherwise.
A similar colony counting experiment was performed using a range of cell densities (FIG. 3). […] See Robins and Schulz 2009, supra. […]

The next assay concerns CyT49 cells. Kind of assay: Suspension aggregate culture, cell counts and aggregate diameters. How it is done: FIG. 10. Effects of NE and ACh in suspension culture of hES cell. (A) 5×10^6 CyT49 cells were seeded in 5 ml StemPro® hESC SFM containing heregulin, LR3-IGF1, Activin and the indicated neurotransmitters at 50 μM in low-attachment 6-well trays and placed at 100 rpm. Undifferentiated suspension aggregates were imaged on day 4. (B) 24 hours after seeding, two wells from each condition were harvested and counted to determine the number of viable cells. (C) Cell counts of each condition when the cultures were split on day 4. (D) The images in (A) were used to determine aggregate diameters using the ImagePro software measurement tool. Average diameters and standard deviations from 50-100 aggregates from each condition are shown. (E) Passage 1 cell counting data. 5×10^6 CyT49 hES cells from p0 cells in (A) were seeded into the same conditions. The aggregates in the condition containing Y27632 were larger and had to be passaged 3 days after seeding, before the centers of the largest aggregates became necrotic. Conversely, the other conditions could be cultured for 6 days before passaging, resulting in higher cell counts.
FIG. 11. Suspension hES cell cultured with NE, […] remain undifferentiated. CyT49 cells were grown as suspension aggregates in the presence of NE, […] for 16 passages without differentiating morphologically. After p10, some cells were re-plated to adherent culture and examined by karyotyping and immunofluorescent staining for OCT4 and Tra-1-61. All cultures remained undifferentiated and expressed these pluripotency markers uniformly. (SP) StemPro® SFM HIA, NE (+NE at 50 μM), ACh (+ACh at 50 μM), NE/ACh (+NE/ACh at 50 μM). Karyotype data is shown to the right. […] Cultures containing ACh were aneuploid.
Small molecule ligands that support survival or self-renewal at low cell densities could also be expected to have beneficial effects in other culture formats. Applicants have previously developed a suspension culture system for hES cells that enables serial propagation of cells and effective expansion of cultures. Human ES cells, at least BG02 and CyT49 cells, have been maintained in suspension for greater than 10 passages without differentiation. The basis of the technique is to dissociate cultures to single cells with reagents that preserve high viability, such as Accutase™, TrypLE or cell dispersal buffer, then aggregate defined concentrations of cells in defined medium in rotational culture. These methods are described in more detail in International Application PCT/US2008/082356, entitled STEM CELL AGGREGATE SUSPENSION COMPOSITIONS AND METHODS OF DIFFERENTIATION THEREOF, filed Nov. 4, 2008; and International Application PCT/US2007/062755, entitled COMPOSITIONS AND METHODS FOR CULTURING DI[…], filed Feb. 23, 2007, which are herein incorporated by reference in their entireties. Self-aggregation of hES cells occurs in the absence of added extracellular matrix (ECM) or ECM-like proteins and is presumed to be driven in part by homotypic interaction of E-cadherin. The aggregates that are formed expand over 3-4 days and are kept apart from each other by the shear forces generated by rotational culture. Cells are blocked from differentiating by the self-renewal signaling provided by the defined medium and retain their pluripotent characteristics: marker expression, normal karyotype, and differentiation potential in vitro and in teratomas. […]

[2] abbreviates: 1000 cells/well, StemPro hESC SFM.

In the case of `NCCCC(=O)O` [GABA], in the assay with hES cells (1000 cells/well), the “survival and expansion at low density, single factors and two-factor combinations” value (from here on “survival and expansion at low density”) is recorded as “less effective”; the “survival/proliferation compared to DMSO controls” value is “lack of robust activity”. Moreover, the “time after plating at which cell index rises above background / expansion detectable” value in the assay with hES cells (setting [2]) is given as about 4.5 days. In the case of `COc1cc(CC(=O)O)ccc1O` [HVA, homovanillic acid], the “survival/proliferation compared to DMSO controls” value in the assay on hES cells (1000 cells/well) is listed as “enhanced survival/proliferation”. For the molecule `CN[C@H](CC(=O)O)C(=O)O` [NMDA, N-methyl-D-aspartic acid], the “survival/proliferation compared to DMSO controls” value with hES cells (1000 cells/well) is on record as “lack of robust activity”. Further, the “support of colony formation at low density” value (from here on “support of colony formation”) in assay [1] is recorded as “failed to support enhanced colony formation”. In the case of `C[C@@H](N)[C@H]1CC[C@H](C(=O)Nc2ccncc2)CC1` [Y27632], the “survival and expansion at low density” value in the assay on hES cells (1000 cells/well) is “did not survive or proliferate; also recorded: reduced the effects of NE, ACh, Adenosine and GABA”. In addition, the “cells generated at passage 1” value in the assay on CyT49 cells (passaged after 3 days) was “about 1.2×10^7 cells”. In addition, the “aggregate size on day 4” value in the assay with CyT49 cells (suspension, StemPro hESC SFM HIA, neurotransmitters 50 μM) is “fewer numbers of larger aggregates”. In assay [1] (6-well trays), the “AP+ colonies counted” value amounted to 0 colonies. In addition, in assay [1], the “support of colony formation” value is “did not support colony survival/expansion”.

In the case of `Nc1ncnc2c1ncn2[C@@H]1O[C@H](CO)[C@@H](O)[C@H]1O` [adenosine], in the assay on hES cells (1000 cells/well), the “survival and expansion at low density” value is recorded as “less effective”. For the same molecule, the “time after plating at which cell index rises above background / expansion detectable” value with hES cells (setting [2]) is about 4.5 days. Also, the “support of colony formation” value in assay [1] is reported as “supported elevated colony formation”.

As to `NCCc1ccc(O)c(O)c1` [dopamine], in the assay on hES cells (1000 cells/well), the “survival/proliferation compared to DMSO controls” value was “enhanced survival/proliferation”. As for `NCCc1c[nH]cn1` [histamine], in the assay with hES cells (1000 cells/well), the “survival/proliferation compared to DMSO controls” value is “lack of robust activity”. Further, in assay [1], the “support of colony formation” value is “failed to support enhanced colony formation”. For the molecule `CN1CCCC1c1cccnc1` (stereo not shown) [nicotine], in assay [1], the “support of colony formation” value was “failed to support enhanced colony formation”. Consider `NCCc1c[nH]c2ccc(O)cc12` [serotonin], for which the “survival/proliferation compared to DMSO controls” value with hES cells (1000 cells/well) is “enhanced survival/proliferation”. Consider (−)-Norepinephrine, for which the “support of colony formation” value in assay [1] is “supported elevated colony formation”.

On to heregulin, for which the “low cell density survival with a single growth factor” value in the assay on hES cells (setting [2]) is reported as “did not support low cell density survival”.

B1: Activin: recombinant Activin A growth factor of the defined medium (protein, UniProt P08476 311-426, looked up)
Inhibin beta A chain: GLECDGKVNICCKKQFFVSFKDIGWNDWIIAPSGYHANYCEGECPSHIAGTSGSSLSFHSTVINHYRMRGHSPFANLKSCCVPTKLRPMSMLYYDDGQNIIKKDIQNMIVEECGCS
modifications: Inhibin beta A chain
For the molecule B1, the “role in plating, survival and/or expansion at low cell density” value with hES cells (low cell density) was “major negative role”.

(Values after US8685726B2, “Small molecules supporting pluripotent cell growth and methods thereof” (Viacyte, Inc., priority 2009, dated 2014).)
